Test results from patent US8961959B2, “Glucosylceramide synthase inhibitors and therapeutic methods using the same” (The Regents of the University of Michigan, priority 2011, dated 2015).
Where two headings read alike, the source gives them in different places.

Legend:
[1] = drug distribution studies; cited from earlier work
[2] = system: WT-MDCKII cells; assay: GCS inhibition (GlcCer production) in whole wild-type MDCKII cells; format: cell-based, canine; conditions: for IC50: Canis lupus familiaris, MDCK-II, 24 h
Procedure: Parental (WT-)MDCKII cells and MDCKII cells retrovirally transduced with human MDR-1 cDNA were obtained from the Netherlands Cancer Institute. Both cell lines were routinely maintained in medium consisting of Opti-MEM/F 12 (1:1), 5% FBS, 100 U/mL of penicillin, 100 μg/mL streptomycin and […] L-glutamine. MDCKII cells were newly thawed from frozen ampules every two months. Protein levels of MDR1 in MDR1-MDCKII cells were measured monthly, and MDR1-MDCKII cell passages were immediately terminated when a reduction of MDR1 levels was observed by Western blot using anti-human MDR1 monoclonal antibody (Abcam C219).
Stock solutions of water-insoluble glycosphingolipid inhibitors (100 mM) were prepared by dissolving each inhibitor into 100% ethanol as previously described (3). The inhibitor-ethanol solutions then were diluted 50× into 2 mM delipidated bovine serum albumin-phosphate buffered saline solution to make water-soluble glycosphingolipid inhibitor-bovine serum albumin complexes. The inhibitor-bovine serum album complexes were sterile-filtered and stored at −20° C. Prior to use, portions of the inhibitor-bovine serum albumin complexes were further diluted with Opti-F12 to make treatment solutions. Equal amounts of bovine serum albumin and ethanol were added into the control cultures. WT and MDR1-MDCKII cells (5×10^5) were seeded into 10-cm culture dishes containing 10 ml of Opti-F12 with 5% FBS. After 24 hours, the medium was replaced with fresh serum-free Opti-F12 medium, and cells were exposed to candidate GCS inhibitors at concentrations of 0, 1, 3, 10, 30, 100 and 300 nM for 24 hours.
Following inhibitor treatment, whole cellular lipids of wild type and MDR1-MDCKII cells were extracted as previously described in detail (10). Briefly, cells were washed with ice-cold phosphate buffered saline, fixed by methanol, and collected with rubber scraper. Chloroform was then added to yield a theoretical ratio of chloroform:methanol:water at 1:2:0.8 (v/v/v) to form a mono-phase. Cell debris and proteins were removed by centrifugation at 2200×g for 30 min. The supernatants were portioned by adding chloroform and 0.9% NaCl. The lower organic phases containing neutral glycosphingolipids lipids were washed with methanol and 0.9% NaCl, and subjected to base- and acid-hydrolysis (10). A portion of purified glycosphingolipids normalized to 100 nmol of total phospholipids was analyzed by high performance thin layer chromatography. The thin layer chromatography separations were processed twice. The plate pretreated with 1% sodium borate was first developed in a solvent system consisting of chloroform/methanol (98/2, v/v). After air drying, the plate was then developed in a solvent system containing chloroform/methanol/water (70/30/4, v/v/v). The levels of glucosylceramide were detected by charring with 8% cupric sulfate in 8% phosphoric acid, and quantified by densitometric scanning using ImageJ, NIH Image. Image data was analyzed, and the IC50 of each inhibitor was calculated using GraphPad Prism (version 5.03).

[3] = molecular target: T1, glucosylceramide synthase (GCS) (Canis lupus familiaris, UniProt A0A8I3MXG6); assay: GCS activity, broken cell (MDCK cell homogenate) assay; format: biochemical, canine
T1 construct: Madin-Darby canine kidney (MDCK) cell homogenates (120 μg of protein) were incubated; endogenous in cells; host or cells: MDCK (Madin-Darby canine kidney) cell homogenate
T1 sequence (A0A8I3MXG6 1-394): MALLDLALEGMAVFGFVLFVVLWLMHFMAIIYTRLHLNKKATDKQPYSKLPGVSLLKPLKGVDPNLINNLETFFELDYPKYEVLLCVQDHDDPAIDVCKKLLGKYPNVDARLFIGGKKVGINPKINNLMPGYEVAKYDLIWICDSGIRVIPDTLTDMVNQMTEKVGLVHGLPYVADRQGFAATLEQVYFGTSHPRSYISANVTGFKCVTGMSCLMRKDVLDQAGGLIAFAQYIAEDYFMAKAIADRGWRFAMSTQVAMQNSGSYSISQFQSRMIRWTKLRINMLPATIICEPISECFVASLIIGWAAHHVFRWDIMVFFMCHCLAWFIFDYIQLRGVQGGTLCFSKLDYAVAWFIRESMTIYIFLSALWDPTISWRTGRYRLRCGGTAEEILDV
Procedure: Enzyme activity was measured as described previously (9). Madin-Darby canine kidney (MDCK) cell homogenates (120 μg of protein) were incubated with uridine diphosphate-[^3H]glucose (100,000 cpm) and liposomes consisting of 85 μg of octanoylsphingosine, 570 μg of dioleoylphosphatidylcholine, and 100 μg of sodium sulfatide in a 200 μL reaction mixture and kept for 1 h at 37° C.

[4] = inhibition of GlcCer production in whole wild-type MDCKII cells, read-out: WT-MDCK IC50

Question: For CCCCCCCC(=O)N[C@H](CN1CCCC1)[C@H](O)c1ccc2c(c1)OCCO2 [Compound 3a, N-((1R,2R)-1-(2,3-dihydrobenzo-[b][1,4]dioxin-6-yl)-1-hydroxy-3-(pyrrolidin-1-yl)propan-2-yl)octanamide, reference compound], which “transport across the blood brain barrier” value [1] is on record?
Answer: Its value is “not transported across the blood brain barrier”.

Question: What about the IC50 ([2]; WT-MDCKII cells, read-out: IC50 for reduction in GlcCer levels, WT cells) of the same compound?
Answer: The IC50 was 13.7 nM.

Question: What about the IC50 [2, 4] of the same compound?
Answer: Its IC50 is 13.7 nM.

Question: And the “potency in whole cells versus broken cells” value ([2]; broken cell IC50 versus whole WT-MDCKII IC50)?
Answer: The value was about 10 fold.

Question: And the IC50 [3]?
Answer: The IC50 was 149 nM.

Question: Which IC50 [2, 4] does the source give for O=C(CC1Cc2ccccc2C1)N[C@H](CN1CCCC1)[C@H](O)c1ccc2c(c1)OCCO2 [Compound 3h, 2-(2,3-dihydro-1H-inden-2-yl)-N-((1R,2R)-1-(2,3-dihydrobenzo[b][1,4]dioxin-6-yl)-1-hydroxy-3-(pyrrolidin-1-yl)propan-2-yl)acetamide] here?
Answer: Its IC50 is 15.3 nM.

Question: What about the IC50 [3] of the same compound?
Answer: The IC50 was 27 nM.

Question: And the “inhibition of GCS” value ([3]; in words)?
Answer: Its value is “low nanomolar concentrations”.
